Reference: patent publication US20260294871A1, “PHARMACEUTICAL COMBINATIONS AND COMPOSITIONS THEREOF COMPRISING ANTIBACTERIAL AGENTS” (priority 2023, published 2026)
Like-named read-outs stand apart in the source and are kept apart here.

Columns and labels:
K. pneumoniae [1] = assay: Frequency of Resistance (FOR) Study, K. pneumoniae; format: cell-based
Experimental: (§1) Objective: The in-vitro study was conducted to determine the frequency of resistance in 8 characterized isolates.
(§2) • Isolates: 8 isolates-E. coli (3), K. pneumoniae (2), A. baumannii (1) and P. aeruginosa (2) • Compound tested: Meropenem; Meropenem Avibactam (4); Meropenem EDTA (10 mM); Meropenem Avibactam (4) EDTA (10 mM) • Antibiotic Concentration used: […]

K. pneumoniae [2] = assay: MIC of Time Kill Assay isolates, K. pneumoniae; format: cell-based; settings: Klebsiella pneumoniae; TKA isolates
Experimental: Objective: The in-vitro Time Kill Assay study was conducted to determine the log reduction in 5 characterised MDR isolates.
• Isolates: 5 isolates-E. coli (3), K. pneumoniae (2) • Compound tested: Meropenem; Meropenem Avibactam (4); Meropenem EDTA (10 mM); Meropenem Avibactam (4) EDTA (10 mM) • 1 log—90% killing, 2 log 99% killing and 3 log 99.9% killing. Bactericidal: 3 log reduction (99.9% killing) • MIC: […]

Acinetobacter baumannii = assay: MIC by broth microdilution against Acinetobacter baumannii; format: cell-based
Experimental: (§3) In a typical study MIC tests were performed by broth microdilution in line with CLSI susceptibility testing standards. Bacterial inocula were prepared at ca. 1×10^6 CFU/mL by diluting 100-fold a 0.5 McFarland suspension in CA-MHB with TES. Microtiter plate wells containing 50 μL of antibacterial solutions at 2×the final concentrations were diluted 2-fold with 50 μL of inoculum to give a final inoculum of ca. 5×10^5 CFU/mL and desired test concentrations of antibacterial agents. Test microtiter plates were incubated according to CLSI guidelines and read visually. MIC values corresponded to the first well with no visible growth.
The results of antibacterial activity of amikacin, Ceftazidime-avibactam, Ceftriaxone with sulbactam and EDTA, Meropenem and Meropenem with avibactum and EDTA against highly resistant strains of Acinetobacter baumannii are given in Table 7.

[3] = system: Stenotrophomonas maltophilia; assay: MIC by broth microdilution against Stenotrophomonas maltophilia; format: cell-based; settings: highly resistant strains
Experimental: as §3
The results of antibacterial activity of amikacin, Ceftazidime-avibactam, Ceftriaxone with sulbactam and EDTA, Meropenem and Meropenem with avibactum and EDTA against highly resistant strains of Stenotrophomonas maltophilia are given in Table 8.

P. aeruginosa [4] = assay: MIC by broth microdilution against P. aeruginosa; format: cell-based, Pseudomonas aeruginosa
Experimental: as §3
The results of antibacterial activity of amikacin, Ceftazidime-avibactam, Ceftriaxone with sulbactam and EDTA, Meropenem and Meropenem with avibactum and EDTA against highly resistant strains of P. aeruginosa are given in Table 5. As may be seen, the activity of the comparators was much lower although CRO/S4/E10 maximum MIC90 were much lower at ≤0.03 μg/mL.

K. pneumoniae [5] = assay: MIC by broth microdilution against Klebsiella; format: cell-based, Klebsiella pneumoniae
Experimental: as §3
The results of antibacterial activity of amikacin, Ceftazidime-avibactam, Ceftriaxone with sulbactam and EDTA, Meropenem and Meropenem with avibactam and EDTA against highly resistant strains of Klebsiella (93. 3% Mem NS) are given in Table 4.

Escherichia coli = assay: MIC by broth microdilution against E. coli; format: cell-based
Experimental: as §3
The results of antibacterial activity of amikacin, Ceftazidime-avibactam, Ceftriaxone with sulbactam and EDTA, Meropenem and Meropenem with avibactam and EDTA against highly resistant strains of Escherichia coli are given in Table 3. […] There was a marked improvement in antibacterial activity, compared to MEM alone, observed for the triple combination MEM/AVI [4 mg/L]/EDTA [10 mM] with a MIC90 at 0.004 μg/mL

P. aeruginosa [6] = assay: Frequency of Resistance (FOR) Study, P. aeruginosa; format: cell-based; note: key: TMTC: To more to count
Experimental: as §1, §2

[7] = system: Enterobacterales isolates from India; assay: MIC by broth microdilution against Enterobacterales; format: cell-based, Enterobacteriaceae
Experimental: as §3
The results of antibacterial activity of amikacin, Ceftazidime-avibactam, Ceftriaxone with sulbactam and EDTA, Meropenem and Meropenem with avibactam and EDTA against highly resistant strains of Enterobacteriaceae are given in Table 2.

A. baumannii = assay: Frequency of Resistance (FOR) Study, A. baumannii; note: key: TMTC: To more to count; format: cell-based; settings: strain 8 - A. baumannii
Experimental: as §1, §2

E. coli = assay: Frequency of Resistance (FOR) Study, E. coli; format: cell-based
Experimental: as §1, §2

C[C@@H](O)[C@H]1C(=O)N2C(C(=O)O)=C(S[C@@H]3CN[C@H](C(=O)N(C)C)C3)[C@H](C)[C@H]12 [Meropenem, (4R,5S,6S)-3-(((3S,5S)-5-(dimethylcarbamoyl)pyrrolidin-3-yl)thio)-6-((R)-1-hydroxyethyl)-4-methyl-7-oxo-1-azabicyclo[3.2.0]hept-2-ene-2-carboxylic acid]
303: count, 24 H of Incubation (K. pneumoniae [1]; strain 6 - K. pneumoniae, ATB concentration 8x)
93.3%: MEM-NS isolates (K. pneumoniae [5]; n=112, listed as MEM)
82.7%: isolates resistant to meropenem (MEM NS) ([7]; 250 out of 301)
88.2%: MEM-NS isolates (Escherichia coli; n=105)
92.7%: MEM-NS isolates (P. aeruginosa [4]; n=120)
> 32 mg/L: MIC (K. pneumoniae [2]) | MIC90 (Acinetobacter baumannii; Acinetobacter baumannii) | MIC50 (Acinetobacter baumannii; Acinetobacter baumannii, highly resistant strains) | MIC90 (Acinetobacter baumannii; MEM-NS isolates (n=163)) | MIC50 ([3]; Stenotrophomonas maltophilia, read-out: MIC50) | MIC90 ([3]; Stenotrophomonas maltophilia, read-out: MIC90) | MIC90 (P. aeruginosa [4]; MEM-NS isolates (n=120)) | MIC50 (P. aeruginosa [4]; Pseudomonas aeruginosa, highly resistant strains) | MIC90 (P. aeruginosa [4]; Pseudomonas aeruginosa, highly resistant strains, read-out: MIC90) | MIC50 (K. pneumoniae [5]; Klebsiella pneumoniae, MEM-NS isolates (n=112), read-out: MIC50) | MIC90 (K. pneumoniae [5]; Klebsiella pneumoniae, highly resistant strains, read-out: MIC90) | MIC90 (K. pneumoniae [5]; MEM-NS isolates (n=112)) | MIC50 (Escherichia coli; Escherichia coli, highly resistant strains, read-out: MIC50) | MIC90 (Escherichia coli; Escherichia coli, highly resistant strains, read-out: MIC90) | MIC50 (Escherichia coli; MEM-NS isolates (n=105)) | MIC90 (Escherichia coli; MEM-NS isolates (n=105)) | MIC50 [7] | MIC90 [7] | MIC50 ([7]; MEM-NS isolates (n=250)) | MIC90 ([7]; MEM-NS isolates (n=250))
0: count, 24 H of Incubation (K. pneumoniae [1]; strain 6 - K. pneumoniae, ATB concentration 16x) | count, 24 H of Incubation (E. coli; strain 1 - E. coli, ATB concentration 4x) | count, 24 H of Incubation (E. coli; strain 1 - E. coli, ATB concentration 8x) | count, 24 H of Incubation (E. coli; strain 1 - E. coli, ATB concentration 16x) | count, 24 H of Incubation (E. coli; strain 5 - E. coli, ATB concentration 4x) | count, 24 H of Incubation (E. coli; strain 5 - E. coli, ATB concentration 8x) | count, 24 H of Incubation (E. coli; strain 5 - E. coli, ATB concentration 16x)
>32 mg/L: MIC90 (Acinetobacter baumannii; highly resistant strains) | MIC50 [3] | MIC90 [3] | MIC90 (P. aeruginosa [4]; highly resistant strains) | MIC50 (K. pneumoniae [5]; highly resistant strains) | MIC90 (K. pneumoniae [5]; highly resistant strains) | MIC50 (Escherichia coli; highly resistant strains) | MIC90 (Escherichia coli; highly resistant strains) | MIC50 ([7]; n=301) | MIC90 ([7]; n=301)
98.2%: MEM-NS isolates (Acinetobacter baumannii; n=163)
TMTC: count, 24 H of Incubation (K. pneumoniae [1]; strain 6 - K. pneumoniae, ATB concentration 4x) | count, 24 H of Incubation (K. pneumoniae [1]; strain 7 - K. pneumoniae, ATB concentration 4x) | count, 24 H of Incubation (K. pneumoniae [1]; strain 7 - K. pneumoniae, ATB concentration 8x) | count, 24 H of Incubation (K. pneumoniae [1]; strain 7 - K. pneumoniae, ATB concentration 16x) | count, 24 H of Incubation (P. aeruginosa [6]; strain 2 - P. aeruginosa, ATB concentration 4x) | count, 24 H of Incubation (P. aeruginosa [6]; strain 2 - P. aeruginosa, ATB concentration 8x) | count, 24 H of Incubation (P. aeruginosa [6]; strain 2 - P. aeruginosa, ATB concentration 16x) | count, 24 H of Incubation (P. aeruginosa [6]; strain 3 - P. aeruginosa, ATB concentration 4x) | count, 24 H of Incubation (P. aeruginosa [6]; strain 3 - P. aeruginosa, ATB concentration 8x) | count, 24 H of Incubation (P. aeruginosa [6]; strain 3 - P. aeruginosa, ATB concentration 16x) | count, 24 H of Incubation (A. baumannii; ATB concentration 4x) | count, 24 H of Incubation (A. baumannii; ATB concentration 8x) | count, 24 H of Incubation (A. baumannii; ATB concentration 16x) | count, 24 H of Incubation (E. coli; strain 4 - E. coli, ATB concentration 4x) | count, 24 H of Incubation (E. coli; strain 4 - E. coli, ATB concentration 8x) | count, 24 H of Incubation (E. coli; strain 4 - E. coli, ATB concentration 16x)
